Measurements: USRE29337E, “Dicarboxylic acid soaps” (priority 1976, dated 1977)
Values belong to the compound of their own block, whether it stands above or below them.

How the values were obtained:
[1] = format: physicochemical
From the text: is often desirable when making liquid soaps, as well as toilet soaps, having tailored properties, to blend together various fatty acids to achieve desirable characteristics and lessen the undesirable ones.

[2] = Solubilities of various fatty acid soaps in water (Example 1); format: physicochemical
Protocol: Likewise, just as the type of fatty acid used influences soap properties, so does the choice of neutralizing agent. Therefore, various available inorganic alkalis were also compared.
The procedure for making the fatty acid soaps was to dissolve the inorganic alkali in the prescribed amount of water, heating to 150° F. The fatty acid was slowly added to the alkali solution and agitated for a few minutes.

[3] = Viscosity vs percentage real soap, Brookfield viscometer (Example 4, FIGURE); format: physicochemical
From the text: A property of the soaps which points up this solubility advantage of C21 dicarboxylic acid soap and which is also important for C21 dicarboxylic acid utility is the viscosity of the soap. […] The solubility of the various soaps may be illustrated by the viscosity of the soaps which is shown in the accompanying figure. […] The coconut fatty acid potassium soap is somewhat poorer than the C21 dicarboxylic acid soap since its viscosity goes above twenty centipoises at 30% real soap.
This example illustrates a comparison of viscosity changes with potassium solids. Liquid soaps of fatty acids must be fairly fluid for ease in dispensing and using them. Therefore, a measure of the change in viscosity of a soap solution as percentage soap present increases is an easy method for determining the concentration of soap that can be used. The curves in the accompanying FIGURE show this relationship. A Brookfield viscometer was used to determine these curves at 25° C. […] The fact that 50% oleic acid/50% coconut soap is required to obtain a viscosity of 20 cps. at 30% real soap; whereas only 25% C21 dicarboxylic acid soap/75% tall oil fatty acid is needed to reach the same viscosity level is typical of the significance of the C21 dicarboxylic acid soaps.

[4] = Liquid soap formulations (Example 8); format: physicochemical; details: for pH of formulation: liquid soap formulations, excess base kept very low; for compatibility of pine oil with soap formulation: pine oil at 3% addition; for state of liquid soap: sodium hydroxide substituted for potassium hydroxide
Protocol: The formulation used was 12% coconut fatty acids, 3% soya or tall oil fatty acid, 4.4% KOH, 1% KCL, 80% water and a perfume as desired. In all of the soaps pine oil was added as the perfume at 3% addition.
The pine oil was compatible with the C21 dicarboxylic acid soap formulation. Of course, with C21 dicarboxylic acid soap much more concentrated, fluid soaps were prepared.
To further test the advantages of C21 dicarboxylic acid soap in liquid soaps, sodium hydroxide was substituted for the potassium hydroxide in each of the formulations mentioned above. […] In all of these formulations the excess base was kept at a very low level so that the pH's were about 9 for the C21 dicarboxylic acid and coconut fatty acid systems and about 11 for the oleic acid systems.

[5] = Shampoo formulations, soap content (Example 9); format: physicochemical; details: 99% solids
From the text: A product similar to the liquid soaps in composition is shampoo. Basically, shampoos are simply perfumed soap solutions which need to lather easily and which have a fairly high soap content. Consequently, most shampoos consist from 50% to 100% of the solids as coconut fatty acid soaps. With such a formulation a viscous potassium soap of about 35% real soap (solids) can be prepared. If the triethanolamine soap is used, a 40% real soap may be formulated. As is obvious from the earlier discussion, C21 dicarboxylic acid soap would allow for greater flexibility in the amount of soap present in the shampoo and also allow for the utility of a lower priced cation, sodium.
An area closely related to the liquid soaps is shampoos. The formulations are similar but, since profuse sudsing is desired in shampoos and since low viscosity is not critical, the real soap content is more than twice as high. To get 35% soap in a formulation, coconut fatty acids or a blend of 50% coconut-50% oleic must be used. A 40% soap shampoo can be prepared using triethanolamine rather than potassium hydroxide to form the soap. […] C21 dicarboxylic acid has a major economic advantage in this application since sodium hydroxide could be used instead of potassium hydroxide.

[6] = one-half of the carboxyl groups as carboxylate anions
From the text: Since each molecule of C21 dicarboxylic acid has two carboxyl groups of varying acidity it is possible to convert the most acidic of these to the soap and the molecule becomes water-soluble leaving a free acid group on each molecule. […] A soap solution of C21 dicarboxylic acid can be prepared at any pH above 6.5, so in the case of amine soaps one can prepare the soap in such a way as to have free acid groups rather than excess amine, so there is no amine odor.
Of course, these soaps all have a pH of about 6.7 and have one free carboxylic acid group in solution.
Since the C21 dicarboxylic acid has two acid groups of different strengths, it is very easy to prepare the mono or half soap of the diacid.

[7] = potassium soaps; cited from earlier work
[8] = Fluidity and gelling of soaps (general description); format: physicochemical; details: potassium soap
From the text: The C21 dicarboxylic acid soaps are made by neutralizing the C21 dicarboxylic acid. The neutralizing agent used is based on the solubility characteristics desired in the soap and economic considerations. The neutralizing agents contemplated include those of the following cations, sodium, potassium, lithium and ammonium. These cations may be obtained from such inorganic alkalis as caustic soda, caustic potash, and soda ash. Another cation which may be used is the ammonium cation. Organic amines may also be used, specifically amines such as triethylamine, monoethylamine, diethylamine, and alkanolamines, such as ethanolamine, triethanolamine and diethanolamine. The soaps made from the above listed neutralizing agents are all liquid at temperatures as low as 30° F.
For example, the potassium soap of oleic acid is a viscous fluid at about 18% solids and gels at 19%-20% solids. However, the potassium soap of oleic acid blended with 40% C21 dicarboxylic acid potassium soap is very fluid at 30 to 40% solids. This general characteristic of increased solubility is advantageous to all soap users for economy in shipping and handling. It also allows for cuts in production costs in applications where water is removed from the final product, since less water is added with the soap when a C21 dicarboxylic acid soap is used. […]

[9] = Amine soaps: dilution with water and gelling (Example 5); format: physicochemical; details: triethylamine soap; diluted slowly with water, C21 soap down to 25% solids
Protocol: The C21 dicarboxylic acid-amine soaps were also prepared using diethanolamine and monoethanol amine.

[10] = cation K, 40 percent solids in water

Compound: CCCCCCCC/C=C\CCCCCCCC(=O)O [Vegetable derived oleic acid (C18), oleic acid]
Characteristics at 25° C. [1]: Gel

Compound: 5 carboxy-4-hexyl-2-cyclohexene-1-octanoic acid and 6 carboxy-4-hexyl-2 cyclohexene-1-octanoic acid [C21 dicarboxylic acid]
water solubility compared with soaps of conventional fatty acids [2]: water soluble at higher solids content
Characteristics ([2]; cation K, 20 percent solids in water): Solution
Characteristics ([2]; cation K, 80 percent solids in water): Viscous solution
Characteristics ([2]; cation Li, 10 percent solids in water): Solution
Characteristics ([2]; cation Na, 20 percent solids in water): Solution
Characteristics ([2]; cation Na, 65 percent solids in water): Viscous solution
viscosity of blends with oleic acid soap and coconut soap [3]: low viscosity blends
pH of formulation [4]: about 9
compatibility of pine oil with soap formulation ([4]; listed as C21 dicarboxylic acid soap): compatible
compatibility of pine oil with soap formulation ([4]; listed as C21 dicarboxylic acid soaps): very compatible
precipitation ([4]; sodium hydroxide formulation, storage): no signs of precipitating after three months
state of liquid soap [4]: very fluid
gelling [5]: does not gel
water-solubility of partly neutralized acid [6]: water-soluble

Compound: CCCCCCCCCCCC(=O)O [Lauric acid (C12), Lauric acid]
Characteristics ([2]; cation K, 33 percent solids in water): Viscous solution
Characteristics ([2]; cation K, 36 percent solids in water): Gel
highest solids soaps that are still fluid at room temperature [7]: 35%

Compound: CCCCCCCC/C=C\CCCCCCCC(=O)O [potassium soap of oleic acid]
percentage real soap at which viscosity exceeds twenty centipoises ([3]; potassium soap solution, 25° C.): 16 % real soap
percent solids at which soap is a viscous fluid [8]: about 18 % solids

Characteristics ([2]; cation K, 35 percent solids in water): Viscous solution
Characteristics [2, 10]: Gel
Compound: CCCCCCCCC(=O)O [Nonanoic acid (G9), Nonanoic acid]

Compound: CCCCCCCC(=O)O [Octanoic acid (C8), Octanoic acid]
Characteristics [2, 10]: Viscous solution
Characteristics ([2]; cation K, 45 percent solids in water): Gel
highest solids soaps that are still fluid at room temperature [7]: 45%

Compound: CCCCCCCCCC(=O)O [Decanoic acid (C10), Decanoic acid]
highest solids soaps that are still fluid at room temperature [7]: 40%

Compound: CCCCCCCC/C=C\CCCCCCCC(=O)O [oleic acid]
gelling on dilution with water [9]: a gel formed immediately upon the addition of water
pH of formulation [4]: about 11
fluidity of liquid soap ([4]; potassium hydroxide formulation, in place of coconut fatty acids): very viscous soap of questionable utility
state of liquid soap [4]: gels
highest solids soaps that are still fluid at room temperature [7]: 20%
